Source: the NIST ThermoML archive (doi:10.1021/je0341918)

Columns and labels:
[1] = 101.33 kPa, Liquid
[2] = molar heat capacity at constant pressure; conditions: 298.15 K; 101.33 kPa; Liquid; Small sample (50 mg) DSC
[3] = xn = mol fraction of the nth substance listed; conditions: 101.3 kPa, Liquid, x2 = 0
[4] = molar heat capacity at constant pressure; xn = mol fraction of the nth substance listed; conditions: 101.3 kPa, Liquid, Small sample (50 mg) DSC, x2 = 0

OCCCCO [1,4-butanediol]
[1]
Conditions | mass density [kg/m3] | viscosity [mPa·s]
293.15 K | 1015.76 | 90.33
298.15 K | 1012.68 | 71.15
303.15 K | 1009.54 | 55.98
308.15 K | 1006.43 | 44.44
313.15 K | 1003.37 | 35.74
318.15 K | 1000.45 | 29.11
323.15 K | 997.14 | 23.63
328.15 K | 994.02 | 19.68
333.15 K | 990.93 | 16.17
338.15 K | 987.93 | 13.65
343.15 K | 984.81 | 11.45
348.15 K | 981.7 | 9.778
353.15 K | 978.59 | 8.28
363.15 K | 972.71 | 6.213

Conditions | molar heat capacity at constant pressure [J/K/mol]
[2] | 200.9

O [water] + OCCCCO
Conditions | mass density, [3] [kg/m3] | molar heat capacity at constant pressure, [4] [J/K/mol] | viscosity, [3] [mPa·s]
293.15 K | – | 75.2 | 1.002
303.15 K | – | 75.3 | 0.797
313.15 K | – | 75.2 | 0.653
323.15 K | 988.05 | 75.2 | 0.547
333.15 K | 983.21 | 75.2 | 0.467
343.15 K | 977.79 | 75.3 | 0.405
353.15 K | 971.83 | 75.4 | 0.356
